Reference: paper PMC6038709, “The Drosophila melanogaster Na^+/Ca^2+ Exchanger CALX Controls the Ca^2+ Level in Olfactory Sensory Neurons at Rest and After Odorant Receptor Activation” (Frontiers in Cellular Neuroscience, 2018)

Target: T1, Orco (Or83b) (Drosophila melanogaster, UniProt Q9VNB5)
T1 construct: full-length Orco in pcDNA3.1(-), expressed alone (no OrX) in HEK293 cells
T1 sequence (Q9VNB5 1-486): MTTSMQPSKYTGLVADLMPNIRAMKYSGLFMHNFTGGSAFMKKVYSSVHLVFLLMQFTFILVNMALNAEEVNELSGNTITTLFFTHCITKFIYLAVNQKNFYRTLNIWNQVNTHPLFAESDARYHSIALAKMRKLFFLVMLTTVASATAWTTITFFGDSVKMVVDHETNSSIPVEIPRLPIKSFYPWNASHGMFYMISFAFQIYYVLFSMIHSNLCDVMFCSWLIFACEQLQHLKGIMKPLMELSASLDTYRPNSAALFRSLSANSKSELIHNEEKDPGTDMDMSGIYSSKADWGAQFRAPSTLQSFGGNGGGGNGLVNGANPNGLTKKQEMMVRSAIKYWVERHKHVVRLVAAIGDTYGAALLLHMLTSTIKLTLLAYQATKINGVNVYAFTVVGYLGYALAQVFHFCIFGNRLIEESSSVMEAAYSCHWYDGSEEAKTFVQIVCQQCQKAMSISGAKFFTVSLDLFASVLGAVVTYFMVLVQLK
Test: fura-2 calcium imaging, HEK293 cells
Format: cell-based
Details: block of VUAA1-evoked (100 or 50 uM) calcium rise; KB-R7943 100 uM (Methods); pH 7.4; Orco without OrX

## N=C(N)SCCc1ccc(OCc2ccc([N+](=O)[O-])cc2)cc1 [KB-R7943, 2-[4-[(4-nitrophenyl)methoxy]phenyl]ethyl ester carbamimidothiotic acid, monomethanesulfonate]
  fura-2 calcium imaging, HEK293 cells: we confirmed that KB-R7943 is blocking Orco
